The numbers were not newly measured in paper PMC8426237, “A first-in-human phase I study of TAS0728, an oral covalent binding inhibitor of HER2, in patients with advanced solid tumors with HER2 or HER3 aberrations” (Investigational New Drugs, 2021), which cites them from elsewhere.

For this data set the following is noted: cited from earlier work; for Diarrhea toxicity grade: HER2-positive breast cancer; for Diarrhea in patients: approved oral HER2-inhibitory compounds.

The structures appear in SMILES notation. Like-named read-outs stand apart in the source and are kept apart here.

With `CN(C)C/C=C/C(=O)Nc1cc2c(Nc3ccc(F)c(Cl)c3)ncnc2cc1O[C@H]1CCOC1` [afatinib], the Diarrhea in patients entry is “associated with severe diarrhea”. Where the note is “LUX-BREAST-1/−3 studies”, the Diarrhea toxicity grade result was “Grade 3 or 4”.

On to `CS(=O)(=O)CCNCc1ccc(-c2ccc3ncnc(Nc4ccc(OCc5cccc(F)c5)c(Cl)c4)c3c2)o1` [lapatinib], for which the Diarrhea in patients entry is reported as “associated with severe diarrhea”. As to `CCOc1cc2ncc(C#N)c(Nc3ccc(OCc4ccccn4)c(Cl)c3)c2cc1NC(=O)/C=C/CN(C)C` [neratinib], the Diarrhea in patients entry is listed as “associated with severe diarrhea” and the “Response of patients with tumors harboring HER2 G778_P780dup” value is “respond to treatment”. Also, the Diarrhea toxicity grade result (ExteNET trial) is reported as “Grade 3 or 4”.

As for `Cc1cc(Nc2ncnc3ccc(NC4=NC(C)(C)CO4)cc23)ccc1Oc1ccn2ncnc2c1` [tucatinib], the Diarrhea in patients result is on record as “associated with severe diarrhea”.
